Assay type in all cases: cell-based, mouse
For one assay, the system named is ERK1 and ERK2. Put plainly: Western blot for phosphorylated ERK in M2 cells. Particulars: 5 μM 20S, 1, 4 or 8 hours. The procedure:
Western blot analysis—After treatments, cells were lysed in lysis buffer, protein concentrations determined using the Bio-Rad protein assay (Hercules, Calif. U.S.A.), and SDS-PAGE performed as previously described. Probing for native and phosphorylated ERKs was performed as previously reported.
(A) M2 cells at confluence were pretreated for four hours with RPMI containing 1% FBS, followed by treatment with control vehicle or 5 μM 20S oxysterol for 1, 4, or 8 hours. Next total cell extracts were prepared and analyzed for levels of native or phosphorylated ERK (pERK) using specific antibodies as previously described. Data from a representative of four experiments are shown, each treatment shown in duplicate samples. (B) M2 cells at confluence were pretreated for 2 hours with control vehicle (C) or 20 μM PD98059 (PD) in osteogenic medium as previously described. Next, a combination of 22R and 20S oxysterols (RS, 5 μM each) were added to appropriate wells as indicated. After 10 days of incubation, matrix mineralization was quantified by the ^45Ca incorporation assay as previously described. Data from a representative of three experiments are reported as the mean±SD of quadruplicate determinations, normalized to protein concentration (p<0.01 for RS vs. RS+PD). […] After 10 days, adipocytes were visualized by oil Red O staining and quantified by light microscopy as previously described. […]
In general terms: In western blotting, separated proteins are transferred to a membrane and probed.

The subject of the next assay is adipocyte P2 gene (aP2). Nature of the assay: Northern blot for adipocyte P2 gene in troglitazone-treated M2 cells. Conditions: 10 μM Tro, 10 μM 20S, 10 days. The method, then: (§1) RNA isolation and Northern blot analysis—Following treatment of cells under appropriate experimental conditions, total RNA was isolated using the RNA isolation kit from Stratagene (La Jolla, Calif., U.S.A.). Total RNA ([…]) was run on a 1% agarose/formaldehyde gel and transferred to Duralon-UV membranes (Strategene, Calif., U.S.A.) and cross-linked with UV light. The membranes were hybridized overnight at 60 degree C. with ^32P-labeled mouse osteocalcin cDNA probe, mouse lipoprotein lipase (LPL), mouse adipocyte protein 2 (aP2) PCR-generated probes, human 28S or 18S rRNA probes obtained from Geneka Biotechnology (Montreal, Quebec, Canada) and Maxim Biotech (San Francisco, Calif., U.S.A.), respectively. […] The extent of gene induction was determined by densitometry.
(§2) Test 2: (A) M2 cells at confluence were treated in RPMI containing 10% FBS with control vehicle or 10 μM troglitazone (Tro) in the absence or presence of 10 μM 20S or 22S oxysterols. After 10 days, adipocytes were visualized by oil Red O staining and quantified by light microscopy, shown in (B). […] After 10 days, total RNA was isolated and analyzed for lipoprotein lipase (LPL), adipocyte P2 gene (aP2) or 18S rRNA expression by Northern blotting as described (Ref). […]

Another assay concerns lipoprotein lipase (LPL). Nature of the assay: Northern blot for lipoprotein lipase in troglitazone-treated M2 cells. Conditions: 10 μM Tro, 10 μM 20S, 10 days. The procedure: as §1, §2

The values below come from patent publication US7897588B2, “Agents and methods for enhancing bone formation” (The Regents of the University of California, priority 2003, dated 2011).

Consider `CC(C)CCC[C@](C)(O)[C@H]1CC[C@H]2[C@@H]3CC=C4C[C@@H](O)CC[C@]4(C)[C@H]3CC[C@@]21C` [20S, 20(S)-hydroxycholesterol], for which the “activation of ERK1 and ERK2” value with ERK1 and ERK2 is listed as “sustained activation”. The “expression of adipocyte P2 gene (aP2)” value in the assay with adipocyte P2 gene (aP2) is given as “inhibition”. The “expression of lipoprotein lipase (LPL)” value in the assay with lipoprotein lipase (LPL) is given as “inhibition”.
